Source: US10702603B2 (priority 2012, dated 2020)
“And” between values parts separate entries of the source, which are not always exact repeats. Equal values may be shown once. Read-outs that look alike come from different tables or passages of the source.

Legend:
[1] = cited from earlier work
[2] = test system: Xenotropic Murine Leukemia Virus (XMuLV); format: cell-based
XMuLV = experiment: Viral inactivation study with TRITON X-100 using 3 different antibodies
Procedure: Viral inactivation studies were performed with TRITON X-100® at 1-2× CMC (0.02% w/w) at ambient temperature using 3 different antibodies. TRITON X-100® is a mixture with a range of molecular lengths, so the CMC has a range between 0.01-0.02% w/w at 25° C. in water.

Row | Compound | CMC ([1]; […]) | Log Reduction Factor (120 min) [2] | also measured
1 | C[C@H](CCC(=O)NCCC[N+](C)(C)CCCS(=O)(=O)[O-])[C@H]1CC[C@H]2[C@@H]3[C@H](O)C[C@@H]4C[C@H](O)CC[C@]4(C)[C@H]3C[C@H](O)[C@]12C [CHAPS, 3-[(3-cholamidopropyl)dimethylammonio]-1-propanesulfonate] | 6 to 10 mM |  | 
2 | C[C@H](CCC(=O)NCCC[N+](C)(C)CC(O)CS(=O)(=O)[O-])[C@H]1CC[C@H]2[C@@H]3[C@H](O)C[C@@H]4C[C@H](O)CC[C@]4(C)[C@H]3C[C@H](O)[C@]12C (stereo partly shown) [CHAPSO, 3-([3-Cholamidopropyl]dimethylammonio)-2-hydroxy-1-propanesulfonate] | 8 mM |  | 
3 | CCCCCCCCCCCC[N+](C)(C)CCCCCCCCCCC(=O)[O-] [DDMAU, N-Dodecyl-N,N-(dimethylammonio)undecanoate] | 0.13 mM |  | 
4 | CCCCCCCCCCCC[N+](C)(C)CC(=O)[O-] [EMPIGEN BB, N,N-Dimethyl-N-dodecylglycine betaine] | 1.6 to 2.1 mM |  | 
5 | CCCCCCCCCCCC[N+](C)(C)[O-] [LDAO, N,N-dimethyldodecylamine N-oxide] | 1 to 2 mM | 4 | Log Reduction Factor (LRF) [2]: 3.14 and 3.07 and 3.08
6 | CCCCCCCCCCCC[N+](C)(C)CCCS(=O)(=O)[O-] [Sulfobetaine-12, N-dodecyl-N,N-dimethyl-3-ammonio-1-propanesulfonate] |  | 4.2 | 
7 | CCCCCCCCCCCCCC[N+](C)(C)CCCS(=O)(=O)[O-] [Sulfobetaine-14, N-tetradecyl-N,N-dimethyl-3-ammonio-1-propanesulfonate] |  | 4.7 | 
8 | CCCCCCCCCCCCCCCC[N+](C)(C)CCCS(=O)(=O)[O-] [Sulfobetaine-16, N-hexadecyl-N,N-dimethyl-3-ammonio-1-propanesulfonate] |  | 4.2 | Log Reduction Factor (LRF) [2]: 3.16 and 3.15 and 3.14
9 | CCCCCCCC[N+](C)(C)CCCS(=O)(=O)[O-] [ZWITTERGENT 3-08, n-Octyl-N,N-dimethyl-3-ammonio-1-propanesulfonate] | 330 mM |  | 
10 | CCCCCCCCCC[N+](C)(C)CCCS(=O)(=O)[O-] [ZWITTERGENT 3-10, n-Decyl-N,N-dimethyl-3-ammonio-1-propanesulfonate] | 25 to 40 mM |  | 
11 | TRITON X-100 |  |  | CMC ([1]; at 25° C. in water): 0.01-0.02 % w/w; viral inactivation (XMuLV; 0.25-0.5× CMC (0.006% w/w), below the CMC): No viral inactivation; XMuLV inactivation (XMuLV; 1-2× CMC (0.02% w/w), ambient temperature, within 45 min): > 4 log
